Like-named read-outs stand apart in the source and are kept apart here.
Columns and labels:
Assay in all cases: biochemical
Assay type in all cases: binding
panel of 442 kinases [1] = molecular target: T1, panel of 442 kinases (Homo sapiens, UniProt O43283); settings: kinase LZK; for remaining activity at 1 µM: read-out: % of control at 1 µM
T1 construct: purchased Ambit Biosciences (scanMAXX KINOMEscan)
T1 sequence (O43283 1-966): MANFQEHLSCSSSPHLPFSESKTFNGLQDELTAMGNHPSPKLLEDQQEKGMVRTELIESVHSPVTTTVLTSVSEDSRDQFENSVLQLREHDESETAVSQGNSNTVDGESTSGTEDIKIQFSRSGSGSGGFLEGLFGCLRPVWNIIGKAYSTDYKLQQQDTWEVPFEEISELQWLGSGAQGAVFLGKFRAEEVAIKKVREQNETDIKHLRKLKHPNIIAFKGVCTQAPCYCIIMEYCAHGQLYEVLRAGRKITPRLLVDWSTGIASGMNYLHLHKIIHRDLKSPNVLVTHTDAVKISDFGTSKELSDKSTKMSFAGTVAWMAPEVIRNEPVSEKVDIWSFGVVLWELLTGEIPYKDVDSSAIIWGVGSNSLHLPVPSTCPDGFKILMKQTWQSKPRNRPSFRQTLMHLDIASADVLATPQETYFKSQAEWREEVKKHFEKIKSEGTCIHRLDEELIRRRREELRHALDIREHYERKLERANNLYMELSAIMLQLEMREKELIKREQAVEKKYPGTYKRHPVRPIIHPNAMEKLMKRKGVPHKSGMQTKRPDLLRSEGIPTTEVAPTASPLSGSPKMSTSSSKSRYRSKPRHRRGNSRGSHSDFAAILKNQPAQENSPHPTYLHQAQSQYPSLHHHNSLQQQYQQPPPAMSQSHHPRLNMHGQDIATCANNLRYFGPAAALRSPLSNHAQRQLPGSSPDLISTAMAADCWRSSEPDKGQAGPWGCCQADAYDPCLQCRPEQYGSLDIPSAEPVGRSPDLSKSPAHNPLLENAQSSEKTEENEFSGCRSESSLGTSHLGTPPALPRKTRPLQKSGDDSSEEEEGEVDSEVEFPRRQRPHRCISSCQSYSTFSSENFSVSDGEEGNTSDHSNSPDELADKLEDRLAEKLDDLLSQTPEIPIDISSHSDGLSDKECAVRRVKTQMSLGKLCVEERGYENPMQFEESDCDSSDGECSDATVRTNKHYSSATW

panel of 442 kinases [2] = molecular target: T2, panel of 442 kinases (Homo sapiens, UniProt Q9UQB9); settings: AURKC; for remaining activity at 1 µM: read-out: % of control at 1 µM
T2 construct: purchased Ambit Biosciences (scanMAXX KINOMEscan)
T2 sequence (Q9UQB9 1-309): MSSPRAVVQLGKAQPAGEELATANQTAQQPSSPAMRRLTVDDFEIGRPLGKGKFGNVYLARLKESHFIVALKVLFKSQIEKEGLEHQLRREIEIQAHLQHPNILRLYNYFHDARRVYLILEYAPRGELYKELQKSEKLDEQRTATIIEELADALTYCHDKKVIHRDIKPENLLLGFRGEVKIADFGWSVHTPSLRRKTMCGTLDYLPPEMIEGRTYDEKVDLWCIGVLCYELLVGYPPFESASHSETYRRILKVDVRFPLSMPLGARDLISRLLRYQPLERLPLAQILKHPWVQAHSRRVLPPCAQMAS

panel of 442 kinases [3] = molecular target: T3, panel of 442 kinases (Homo sapiens, UniProt Q9UEW8); settings: kinase STK39; for remaining activity at 1 µM: read-out: STK39 (% of control at 1 µM)
T3 construct: purchased Ambit Biosciences (scanMAXX KINOMEscan)

panel of 442 kinases [4] = molecular target: T4, panel of 442 kinases (Homo sapiens, UniProt Q13705); settings: ACVR2B; for remaining activity at 1 µM: read-out: % of control at 1 µM
T4 construct: purchased Ambit Biosciences (scanMAXX KINOMEscan)
T4 sequence (Q13705 19-512): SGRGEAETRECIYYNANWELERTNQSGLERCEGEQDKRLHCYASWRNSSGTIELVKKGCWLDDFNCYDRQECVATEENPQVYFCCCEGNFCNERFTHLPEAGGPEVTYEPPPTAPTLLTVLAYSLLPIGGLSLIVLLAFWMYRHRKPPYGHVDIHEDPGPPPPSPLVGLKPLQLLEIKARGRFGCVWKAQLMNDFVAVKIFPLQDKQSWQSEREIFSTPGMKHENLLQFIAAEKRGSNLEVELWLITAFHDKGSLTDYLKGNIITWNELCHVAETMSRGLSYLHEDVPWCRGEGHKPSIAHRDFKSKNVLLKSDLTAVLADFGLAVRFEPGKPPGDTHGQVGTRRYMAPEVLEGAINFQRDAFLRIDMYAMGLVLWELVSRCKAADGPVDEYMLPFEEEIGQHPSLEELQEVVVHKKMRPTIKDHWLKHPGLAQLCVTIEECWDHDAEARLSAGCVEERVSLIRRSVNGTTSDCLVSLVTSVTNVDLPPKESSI

panel of 442 kinases [5] = molecular target: T5, panel of 442 kinases (Homo sapiens, UniProt P00519, F317L); settings: for remaining activity at 1 µM: read-out: % of control at 1 µM; for remaining activity at 10 µM: read-out: % of control at 10 µM
T5 construct: purchased Ambit Biosciences (scanMAXX KINOMEscan)
T5 sequence (P00519 whole entry F317L): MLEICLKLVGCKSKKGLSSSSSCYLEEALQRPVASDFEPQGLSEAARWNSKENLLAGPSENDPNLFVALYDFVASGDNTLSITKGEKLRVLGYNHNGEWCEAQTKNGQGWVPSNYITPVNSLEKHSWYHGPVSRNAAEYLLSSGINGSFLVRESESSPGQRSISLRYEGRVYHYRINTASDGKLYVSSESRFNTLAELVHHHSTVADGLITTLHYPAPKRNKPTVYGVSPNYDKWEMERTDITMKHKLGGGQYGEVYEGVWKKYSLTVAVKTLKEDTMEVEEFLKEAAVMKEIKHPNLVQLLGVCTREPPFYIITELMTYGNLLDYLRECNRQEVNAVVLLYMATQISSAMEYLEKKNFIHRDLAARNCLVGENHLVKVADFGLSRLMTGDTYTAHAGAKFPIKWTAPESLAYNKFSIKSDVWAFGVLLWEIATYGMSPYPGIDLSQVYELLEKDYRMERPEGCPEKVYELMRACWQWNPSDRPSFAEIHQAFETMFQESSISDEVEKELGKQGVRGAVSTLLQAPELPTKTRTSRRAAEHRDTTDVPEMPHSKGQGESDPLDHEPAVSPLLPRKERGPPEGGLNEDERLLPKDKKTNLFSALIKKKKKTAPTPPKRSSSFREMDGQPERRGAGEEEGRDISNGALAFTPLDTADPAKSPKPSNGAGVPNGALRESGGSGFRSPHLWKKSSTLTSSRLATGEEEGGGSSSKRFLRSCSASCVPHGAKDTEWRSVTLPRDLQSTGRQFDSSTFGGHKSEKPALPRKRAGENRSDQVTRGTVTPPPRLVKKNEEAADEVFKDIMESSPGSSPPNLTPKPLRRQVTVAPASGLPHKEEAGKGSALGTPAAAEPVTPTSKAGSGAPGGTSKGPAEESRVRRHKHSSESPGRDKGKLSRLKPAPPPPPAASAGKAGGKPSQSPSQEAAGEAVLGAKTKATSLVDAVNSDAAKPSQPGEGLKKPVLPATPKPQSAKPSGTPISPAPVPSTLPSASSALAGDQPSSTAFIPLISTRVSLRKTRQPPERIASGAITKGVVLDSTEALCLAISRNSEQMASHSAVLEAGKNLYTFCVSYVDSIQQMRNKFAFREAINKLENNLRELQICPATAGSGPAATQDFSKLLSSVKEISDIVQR

panel of 442 kinases [6] = molecular target: T6, panel of 442 kinases (Homo sapiens, UniProt Q13233); settings: kinase MAP3K1; for remaining activity at 1 µM: read-out: % of control at 1 µM
T6 construct: purchased Ambit Biosciences (scanMAXX KINOMEscan)
T6 sequence (Q13233 whole entry): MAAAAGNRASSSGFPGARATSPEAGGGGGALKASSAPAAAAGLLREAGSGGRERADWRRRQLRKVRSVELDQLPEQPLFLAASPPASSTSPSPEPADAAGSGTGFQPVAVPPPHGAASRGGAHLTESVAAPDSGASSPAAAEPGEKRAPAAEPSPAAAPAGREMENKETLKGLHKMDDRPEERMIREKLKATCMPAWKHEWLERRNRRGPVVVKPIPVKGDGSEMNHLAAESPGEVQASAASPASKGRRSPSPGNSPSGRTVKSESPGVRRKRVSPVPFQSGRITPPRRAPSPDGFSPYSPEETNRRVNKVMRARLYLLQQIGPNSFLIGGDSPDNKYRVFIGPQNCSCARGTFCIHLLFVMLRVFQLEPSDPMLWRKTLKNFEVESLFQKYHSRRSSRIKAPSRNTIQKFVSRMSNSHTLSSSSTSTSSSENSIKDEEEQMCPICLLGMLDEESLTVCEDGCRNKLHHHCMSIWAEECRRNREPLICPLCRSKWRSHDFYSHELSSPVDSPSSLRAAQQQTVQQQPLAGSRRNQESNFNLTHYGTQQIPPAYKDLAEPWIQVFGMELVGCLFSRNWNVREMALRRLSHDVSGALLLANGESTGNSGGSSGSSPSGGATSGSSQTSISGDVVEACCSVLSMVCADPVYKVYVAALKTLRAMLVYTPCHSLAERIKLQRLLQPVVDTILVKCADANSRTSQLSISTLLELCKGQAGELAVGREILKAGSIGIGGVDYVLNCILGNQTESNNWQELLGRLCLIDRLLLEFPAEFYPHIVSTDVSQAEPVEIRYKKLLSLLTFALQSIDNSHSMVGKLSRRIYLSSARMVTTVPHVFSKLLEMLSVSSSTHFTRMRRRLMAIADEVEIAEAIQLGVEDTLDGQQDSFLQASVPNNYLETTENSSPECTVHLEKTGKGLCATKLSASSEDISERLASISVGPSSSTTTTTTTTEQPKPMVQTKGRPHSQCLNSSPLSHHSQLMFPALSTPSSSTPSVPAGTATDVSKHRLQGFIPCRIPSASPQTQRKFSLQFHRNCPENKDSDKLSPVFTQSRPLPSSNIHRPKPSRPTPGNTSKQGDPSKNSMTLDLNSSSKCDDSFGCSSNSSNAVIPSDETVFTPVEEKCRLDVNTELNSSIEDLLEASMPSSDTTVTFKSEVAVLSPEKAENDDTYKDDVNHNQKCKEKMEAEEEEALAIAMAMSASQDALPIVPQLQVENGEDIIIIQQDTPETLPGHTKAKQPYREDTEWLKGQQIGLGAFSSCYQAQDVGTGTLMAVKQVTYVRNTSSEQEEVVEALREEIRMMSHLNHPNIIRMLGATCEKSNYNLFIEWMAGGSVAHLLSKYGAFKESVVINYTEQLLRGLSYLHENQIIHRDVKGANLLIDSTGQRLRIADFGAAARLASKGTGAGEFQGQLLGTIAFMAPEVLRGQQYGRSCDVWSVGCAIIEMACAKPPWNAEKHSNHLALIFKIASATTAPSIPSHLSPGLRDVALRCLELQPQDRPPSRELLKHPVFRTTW

panel of 442 kinases [7] = molecular target: T7, panel of 442 kinases (Homo sapiens, UniProt P57059); settings: kinase SIK; for remaining activity at 1 µM: read-out: SIK (% of control at 1 µM)
T7 construct: purchased Ambit Biosciences (scanMAXX KINOMEscan)
T7 sequence (P57059 whole entry): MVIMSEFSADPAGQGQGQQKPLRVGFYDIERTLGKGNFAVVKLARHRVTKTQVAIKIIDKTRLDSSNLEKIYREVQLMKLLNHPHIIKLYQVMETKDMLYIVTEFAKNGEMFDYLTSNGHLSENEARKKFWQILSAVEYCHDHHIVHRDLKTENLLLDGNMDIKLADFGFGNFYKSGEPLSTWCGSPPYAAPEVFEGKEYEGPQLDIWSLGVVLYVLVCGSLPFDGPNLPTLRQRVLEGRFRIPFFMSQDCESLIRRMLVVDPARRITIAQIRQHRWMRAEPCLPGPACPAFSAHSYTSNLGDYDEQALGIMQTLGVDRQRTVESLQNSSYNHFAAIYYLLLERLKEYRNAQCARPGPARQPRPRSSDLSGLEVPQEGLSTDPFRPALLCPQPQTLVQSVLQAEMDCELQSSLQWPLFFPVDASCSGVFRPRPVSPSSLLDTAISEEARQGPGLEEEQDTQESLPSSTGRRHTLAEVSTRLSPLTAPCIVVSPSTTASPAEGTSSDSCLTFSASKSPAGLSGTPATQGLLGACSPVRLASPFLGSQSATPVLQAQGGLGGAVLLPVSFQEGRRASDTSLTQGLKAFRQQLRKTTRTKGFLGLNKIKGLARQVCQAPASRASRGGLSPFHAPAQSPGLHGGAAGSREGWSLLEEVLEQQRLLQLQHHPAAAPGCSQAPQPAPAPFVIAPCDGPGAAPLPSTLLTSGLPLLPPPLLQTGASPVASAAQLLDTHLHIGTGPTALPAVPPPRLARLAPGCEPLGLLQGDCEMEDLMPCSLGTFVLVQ

panel of 442 kinases [8] = molecular target: T8, panel of 442 kinases (Homo sapiens, UniProt Q02156); settings: kinase PRKCE; for remaining activity at 1 µM: read-out: PRKCE (% of control at 1 µM)
T8 construct: purchased Ambit Biosciences (scanMAXX KINOMEscan)
T8 sequence (Q02156 1-737): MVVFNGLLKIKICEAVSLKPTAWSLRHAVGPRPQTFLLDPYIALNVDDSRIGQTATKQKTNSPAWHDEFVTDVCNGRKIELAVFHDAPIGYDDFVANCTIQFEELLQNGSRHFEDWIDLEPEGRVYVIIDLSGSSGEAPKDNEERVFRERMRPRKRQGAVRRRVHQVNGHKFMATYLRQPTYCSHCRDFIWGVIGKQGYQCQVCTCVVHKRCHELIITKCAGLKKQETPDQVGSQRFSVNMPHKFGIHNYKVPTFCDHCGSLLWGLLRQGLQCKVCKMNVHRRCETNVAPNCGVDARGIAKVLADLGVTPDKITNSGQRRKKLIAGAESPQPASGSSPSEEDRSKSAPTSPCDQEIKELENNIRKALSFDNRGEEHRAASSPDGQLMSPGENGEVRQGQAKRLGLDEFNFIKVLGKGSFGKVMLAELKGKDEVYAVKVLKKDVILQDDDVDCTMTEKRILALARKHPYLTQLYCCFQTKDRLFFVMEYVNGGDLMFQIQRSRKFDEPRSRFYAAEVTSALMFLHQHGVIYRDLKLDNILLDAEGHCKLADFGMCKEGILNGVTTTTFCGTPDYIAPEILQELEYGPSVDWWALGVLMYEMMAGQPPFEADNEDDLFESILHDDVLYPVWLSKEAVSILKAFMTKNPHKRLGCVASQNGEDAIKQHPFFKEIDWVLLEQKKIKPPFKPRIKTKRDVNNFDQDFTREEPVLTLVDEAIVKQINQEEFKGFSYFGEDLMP

[9] = 10 µM, read-out: % of control at 10 µM

SMILES	remaining activity at 1 µM (panel of 442 kinases [1]) [%]	remaining activity at 10 µM (panel of 442 kinases [1]; [9]) [%]	remaining activity at 1 µM (panel of 442 kinases [2]) [%]	remaining activity at 10 µM (panel of 442 kinases [2]; [9]) [%]	remaining activity at 1 µM (panel of 442 kinases [3]) [%]	remaining activity at 10 µM (panel of 442 kinases [3]; 10 µM, read-out: STK39 (% of control at 10 µM)) [%]	remaining activity at 1 µM (panel of 442 kinases [4]) [%]	remaining activity at 10 µM (panel of 442 kinases [4]; [9]) [%]	remaining activity at 1 µM (panel of 442 kinases [5]; ABL1(F317L)-nonphosphorylated) [%]	remaining activity at 10 µM (panel of 442 kinases [5]; ABL1(F317L)-nonphosphorylated) [%]	remaining activity at 1 µM (panel of 442 kinases [5]; ABL1(F317L)-phosphorylated) [%]	remaining activity at 10 µM (panel of 442 kinases [5]; ABL1(F317L)-phosphorylated) [%]	remaining activity at 1 µM (panel of 442 kinases [6]) [%]	remaining activity at 10 µM (panel of 442 kinases [6]; [9]) [%]	remaining activity at 1 µM (panel of 442 kinases [7]) [%]	remaining activity at 10 µM (panel of 442 kinases [7]; 10 µM, read-out: SIK (% of control at 10 µM)) [%]	remaining activity at 1 µM (panel of 442 kinases [8]) [%]	remaining activity at 10 µM (panel of 442 kinases [8]; 10 µM, read-out: PRKCE (% of control at 10 µM)) [%]
Nc1cc(C(F)(F)F)c(-c2cc(N3CCOCC3)nc(N3CCOCC3)n2)cn1 [Buparlisib]	81	98	100	91	93	100	100	100	100	100	100	100	100	100	100	100	97	100
COc1ncc(-c2ccc3nccc(-c4ccnnc4)c3c2)cc1NS(=O)(=O)c1ccc(F)cc1F [Omipalisib]	100		100		76		100		87		100		100		100		100	
FC(F)c1nc2ccccc2n1-c1nc(N2CCOCC2)nc(N2CCOCC2)n1 [ZSTK474, 2-(difluoromethyl)-1-[4,6-di(4-morpholinyl)-1,3,5-triazin-2-yl]-1H-benzimidazole]	100		96		95		89		85		100		100		100		100	
Cn1c(=O)n(-c2ccc(C(C)(C)C#N)cc2)c2c3cc(-c4cnc5ccccc5c4)ccc3ncc21 [Dactolisib, 2-methyl-2-[4-(3-methyl-2-oxo-8-quinolin-3-yl-2,3-dihydroimidazo[4,5-c]quinolin-1-yl)-phenyl] propionitrile]	100		87		100		85		100		100		100		100		78	
